pKi: −log10 of the molar value. Read-outs that look alike come from different tables or passages of the source.
Experiments:
Assay type in all cases: biochemical
[1] = target: T1, human collagenase-3 (Coll3) (Homo sapiens, UniProt P45452); assay: In vitro MMP inhibition assay (hydrolysis of fluorogenic MCA peptide substrate), collagenase-3; conditions: Table 1; Ki,app; MCA peptide substrate 10 μM, 37° C., pH 7.5, 2% DMSO
T1 construct: catalytic domain liberated with APMA
Description: The propeptide and catalytic domain of human collagenase-3 (Coll3) was expressed in E. coli as an N-terminal fusion protein with ubiquitin. After purification of the fusion from inclusion bodies, the catalytic domain was liberated by treatment with 2 mM APMA at room temperature overnight. Final purification was completed using copper chelate chromatography.
(§1) Assays were performed in assay buffer (50 mM Tricine pH 7.5, 200 mM sodium chloride, 10 mM calcium chloride, 0.5 mM zinc acetate containing 2% dimethyl sulfoxide (DMSO)) once the substrate and inhibitor were diluted into it. Stock solutions of inhibitors were prepared in 100% DMSO. Stock solutions of the substrate were prepared in 100% DMSO at a concentration of 6 mM.
(§2) The assay method was based on the hydrolysis of MCA-Pro-Leu-Gly-Leu-DPA-Ala-Arg-NH2 (American Peptide Co.) at 37° C. (see Knight, C. G. et al., FEBS, 1992, 296, 263-266). The fluorescence changes were monitored with a Perkin-Elmer LS-50B fluorimeter using an excitation wavelength of 328 nm and an emission wavelength of 393 nm. The substrate concentration used in the assays was 10 μM. The inhibitor was diluted into the assays from a solution in 100% DMSO, and controls substituted an equal volume of DMSO so that the final DMSO concentration from inhibitor and substrate dilution in all assays was 2%. […] Proper determination of steady-state rates of substrate cleavage required assay lengths of 60 minutes to allow for complete equilibration of the enzyme-inhibitor complex.
(§3) The Km for the MCA peptide substrate with the matrix metalloproteinases is quite high and exceeds its solubility under assay conditions. Consequently, the apparent Ki (Ki,app) was determined to describe the strength of inhibition. However, in this case, Ki,app would be essentially equal to Ki since [S]<<Km. For the determination of Ki,app, the concentration of the inhibitor was varied at a constant and low concentration of substrate and the steady-state rates of fluorescence change determined. In most cases absorptive quench due to the presence of ligand was not observed. For slow-binding inhibitors, onset of inhibition curves were collected for at least 45 minutes so that equilibrium was established. Steady-state rates of fluorescence change were obtained by fitting a curve to an equation for a single exponential decay containing a linear phase. The fitted value of the linear phase was taken as the steady-state rate. The steady-state rates were fitted to the Michaelis equation describing competitive inhibition by non-linear methods. Data resulting from tight-binding inhibition was analyzed, and Ki,app determined by fitting the data to the tight-binding equation of Morrison (Biochem. Biophys. Acta, vol. 185, pp. 269-286 (1969)) by non-linear methods.
(§4) All Ki values are in nM units.

human stromelysin (Sln) = human stromelysin (Sln) (Homo sapiens, UniProt P08254); assay: In vitro MMP inhibition assay (hydrolysis of fluorogenic MCA peptide substrate), stromelysin
Description: The catalytic domain of human stromelysin (Sln) was obtained by expression and purification of a C-terminally truncated prostromelysin-1 from E. coli host BL21 (see Marcy et al. Biochem., 1991, 30, 6476). The subsequent activation of the mature form (Sln) was completed with 2 mM APMA for 1 hour at 37° C., followed by separation using a sizing column.
as §1, §2, §3, §4

[2] = target: T2, human collagenase-1 (HFC) (Homo sapiens, UniProt P03956); assay: In vitro MMP inhibition assay (hydrolysis of fluorogenic MCA peptide substrate), fibroblast collagenase-1; conditions: Table 1; Ki,app; MCA peptide substrate 10 μM, 37° C., pH 7.5, 2% DMSO
T2 sequence (P03956 100-269 limits assumed): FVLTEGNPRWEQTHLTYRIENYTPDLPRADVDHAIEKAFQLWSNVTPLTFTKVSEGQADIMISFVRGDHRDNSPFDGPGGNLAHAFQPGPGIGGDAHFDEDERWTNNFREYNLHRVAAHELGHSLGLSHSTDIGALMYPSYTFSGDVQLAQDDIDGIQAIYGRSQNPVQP
Description: The catalytic domain of human collagenase-1 was expressed as a fusion protein with ubiquitin in E. coli (see Gehring, E. R., J Biol. Chem., 1995, 270, 22507). After purification of the fusion protein, the fibroblast collagenase-1 catalytic domain (HFC) was released either by treatment with purified, active stromelysin-1 (1:50 wlw ratio), which generated nearly 100% N-terminal Phe1, or by autoprocessing the concentrated collagenase-1 fusion and then incubating at 37° C. for 1 hour. Final purification was completed using zinc chelate chromatography.
as §1, §2, §3, §4

[3] = target: human progelatinase A (GelA) (Homo sapiens, UniProt P08253); assay: In vitro MMP inhibition assay (hydrolysis of fluorogenic MCA peptide substrate), gelatinase A
Description: The catalytic and fibronectin-like portion of human progelatinase A (GelA) was expressed as a fusion protein with ubiquitin in E. Coli. Assays were carried out on autocatalytically activated material.
as §1, §2, §3, §4

Human matrilysin (Matr) = target: T3, Human matrilysin (Matr) (Homo sapiens, UniProt P09237); assay: In vitro MMP inhibition assay (hydrolysis of fluorogenic MCA peptide substrate), matrilysin; conditions: Table 1; Ki,app; MCA peptide substrate 10 μM, 37° C., pH 7.5, 2% DMSO; read-out: Matri Ki
T3 construct: catalytic domain liberated with APMA
T3 sequence (P09237 95-267): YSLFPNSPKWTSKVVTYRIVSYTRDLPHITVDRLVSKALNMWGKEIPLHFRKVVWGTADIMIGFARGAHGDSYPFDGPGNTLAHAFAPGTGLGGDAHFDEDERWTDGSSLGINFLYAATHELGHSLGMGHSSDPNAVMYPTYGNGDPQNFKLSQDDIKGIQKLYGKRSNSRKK
Description: Human matrilysin (Matr) was expressed in E. coli as a fusion protein with ubiquitin. After purification of the matrilysin/ubiquitin fusion from inclusion bodies, the catalytic domain was liberated by treatment with 2 mM APMA at 37° C. for 2 hours. Final purification was complete using copper chelate chromatography.
as §1, §2, §3, §4

[4] = Table 1, Ki,app, MCA peptide substrate 10 μM, 37° C., pH 7.5, 2% DMSO, read-out: Sin Ki
[5] = Table 1, Ki,app, MCA peptide substrate 10 μM, 37° C., pH 7.5, 2% DMSO, read-out: Gel A

Chain of human stromelysin (Sln) (P08254 100-272 limits assumed): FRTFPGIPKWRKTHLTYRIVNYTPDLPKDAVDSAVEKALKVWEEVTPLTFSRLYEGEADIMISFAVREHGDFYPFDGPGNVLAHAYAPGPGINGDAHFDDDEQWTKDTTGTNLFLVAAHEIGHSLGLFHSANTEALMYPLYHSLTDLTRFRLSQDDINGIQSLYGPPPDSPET
Chain of human progelatinase A (GelA) (P08253 110-446 limits assumed): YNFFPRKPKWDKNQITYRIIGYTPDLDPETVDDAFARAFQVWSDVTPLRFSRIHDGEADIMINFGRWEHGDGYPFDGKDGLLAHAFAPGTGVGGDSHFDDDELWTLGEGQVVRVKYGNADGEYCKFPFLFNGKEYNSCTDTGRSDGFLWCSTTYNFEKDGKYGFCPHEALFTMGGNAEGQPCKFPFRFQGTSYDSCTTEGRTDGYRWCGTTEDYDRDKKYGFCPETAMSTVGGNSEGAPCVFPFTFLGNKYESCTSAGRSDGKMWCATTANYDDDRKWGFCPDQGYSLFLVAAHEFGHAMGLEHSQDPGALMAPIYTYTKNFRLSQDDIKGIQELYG

| pKi [1] | pKi (human stromelysin (Sln); [4]) | pKi [2] | pKi [3, 5] | pKi (Human matrilysin (Matr)) | pKi (human stromelysin (Sln); Table 2, comparative example, read-out: STROMELYSIN Ki) | pKi ([3]; Table 2, comparative example, gelatinase A, read-out: GELATINASE Kj) | SMILES |
| --- | --- | --- | --- | --- | --- | --- | --- |
| 10.55 | 9.00 | 7.62 | 10.31 |  |  |  | CC(C)([C@@H](NS(=O)(=O)c1ccc(Oc2ccc(Br)cc2)cc1)C(=O)NO)[S+]([O-])Cc1ccccn1 (mixture of isomers) [Example 11, 2(S), S(R/S)--N-hydroxy-3-methyl-3-(pyrid-2-yl) methylsulfinyl-2-[(4-(4-bromophenoxy)benzenesulfonyl)amino]butanamide] |
| 10.23 | 8.74 | 7.52 | 9.96 | 6.92 |  |  | CC(C)(C)C(NS(=O)(=O)c1ccc(Oc2ccc(F)cc2)cc1)C(=O)NO (stereo in doubt) [Example 9l, 2(S)--N-hydroxy-3,3-dimethyl-2-[(4-(4-fluorophenoxy)benzenesulfonyl)-amino]butanamide] |
| 10.47 | 9.00 | 7.68 | 10.05 | 7.03 | 9.00 | 10.05 | CC(C)(C)C(NS(=O)(=O)c1ccc(Oc2ccc(Cl)cc2)cc1)C(=O)NO (stereo in doubt) [Example 9m, 2(S)--N-hydroxy-3,3-dimethyl-2-[(4-(4-chlorophenoxy)benzenesulfonyl)amino]butanamide] |
| 6.75 | 5.82 | 4.47 | 8.15 | 4.12 |  |  | CC(C)(SCc1ccccn1)[C@@H](NS(=O)(=O)c1ccc(Oc2ccc(Br)cc2)cc1)C(=O)O [Example 3d, N-[4-(4-Bromophenoxy)benzenesulfonyl]--S--[(pyrid-2-yl)methyl]-D-penicillamine] |
| 10.38 | 8.82 | 7.52 | 10.19 | 6.94 |  |  | CSC(C)(C)[C@@H](NS(=O)(=O)c1ccc(Oc2ccc(Cl)cc2)cc1)C(=O)NO [Example 9b, 2(S)--N-hydroxy-3-methyl-3-methylsulfanyl-2-[(4-(4-chlorophenoxy)benzenesulfonyl)amino]butanamide] |
|  | 9.59 | 8.39 |  | 8.10 |  |  | CC(C)(SCc1ccccn1)[C@@H](NS(=O)(=O)c1ccc(Oc2ccc(Br)cc2)cc1)C(=O)NO [Example 9e, 2(S)--N-hydroxy-3-methyl-3-(pyrid-2-yl)methylsulfanyl-2-[(4-(4-bromophenoxy)benzenesulfonyl)amino]butanamide] |
| 10.24 | 9.08 | 7.77 | 10.51 |  |  |  | CC(C)(SCc1ccccn1)[C@@H](NS(=O)(=O)c1ccc(Oc2ccc(F)cc2)cc1)C(=O)NO [Example 9h, 2(S)--N-hydroxy-3-methyl-3-(pyrid-2-yl)methylsulfanyl-2-[(4-(4-fluorophenoxy)benzenesulfonyl)amino]butanamide] |
| 9.80 | 8.85 | 7.48 | 10.42 | 7.59 |  |  | CC(C)(SCc1ccccc1)[C@@H](NS(=O)(=O)c1ccc(Oc2ccccc2)cc1)C(=O)NO [Example 9i, 2(S)--N-hydroxy-3-methyl-3-benzylsulfanyl-2-[(4-phenoxybenzenesulfonyl)amino]butanamide] |
| 10.24 | 8.38 | 7.28 | 10.04 | 6.42 |  |  | CC(C)(C)[C@H](NS(=O)(=O)c1ccc(Oc2ccccc2)cc1)C(=O)NO [Example 9k, 2(S)--N-hydroxy-3,3-dimethyl-2-[(4-phenoxybenzenesulfonyl)-amino]butanamide] |
| 8.80 | 7.42 |  | 9.12 |  |  |  | Cc1cc(CSC(C)(C)[C@@H](NS(=O)(=O)c2ccc(Sc3ccncc3)cc2)C(=O)NO)no1 [Example 10b, 2(S)--N-hydroxy-3-methyl-3-(5-methylisoxazol-3-yl)methylsulfanyl-2-[(4-{(pyrid-4-yl)sulfanyl}benzenesulfonyl)amino]butanamide] |
| 8.34 | 7.15 | 6.02 | 8.29 | 5.64 |  |  | CC(C)(C)[C@H](NS(=O)(=O)c1ccc(Oc2ccccn2)cc1)C(=O)NO [Example 10c] |
| 9.57 | 8.24 |  | 9.28 |  |  |  | CC(C)(SCC(=O)O)[C@@H](NS(=O)(=O)c1ccc(Oc2ccc(F)cc2)cc1)C(=O)NO [Example 12, 2(S)--N-hydroxy-3-methyl-3-(carboxymethyl)sulfanyl-2-[(4-(4-fluorophenoxy)benzenesulfonyl)amino]butanamide] |

| SMILES | pKi [1] | pKi (human stromelysin (Sln); [4]) | pKi [2] | pKi [3, 5] | pKi (Human matrilysin (Matr)) | pKi (human stromelysin (Sln); Table 2, comparative example, read-out: STROMELYSIN Ki) | pKi ([3]; Table 2, comparative example, gelatinase A, read-out: GELATINASE Kj) |
| --- | --- | --- | --- | --- | --- | --- | --- |
| CC(C)(C)OC(=O)CSC(C)(C)[C@@H](NS(=O)(=O)c1ccc(Oc2ccc(F)cc2)cc1)C(=O)NO [Example 9j, 2(S)--N-hydroxy-3-methyl-3-(t-butoxycarbonyl)methylsulfanyl-2-[(4-(4-fluorophenoxy)benzenesulfonyl)amino]butanamide] | 10.04 | 8.80 | 7.48 | 10.32 |  |  |  |
